Inhibition data for 28 molecules are collected here from patent US7319098B2, “1,3-dioxoisoindole derivatives having selective antagonism of T-type calcium channel” (Korea Institute of Science and Technology, priority 2006, dated 2008).

This assay has as its target T1, α1G T-type Ca2+ channels (Homo sapiens, UniProt O43497).
T1 construct: expressed in transfected cells; host or cells: HEK293 cells stably expressing α1G and Kir2.1
The assay is described as follows: Screening of activity against T-type calcium channel with FDSS6000 (fluorescence, KCl-induced [Ca2+]i increase). Format: cell-based. The note with it: HEK293 cells expressing α1G and Kir2.1, read-out: Inhibitory effect (%) of T-type calcium channel, Inhibition (%); for inhibition at 10 µM: NA: Not Active. As to the method:
Meanwhile, the antagonistic activity of the novel compound of Formula (1) herein against T-type calcium channel was tested as described below. The synthesized compounds were tested for the activity against T-type calcium channel with FDSS6000. Compounds with good activity were selected and IC50 values were exactly obtained by using electrophysiological whole cell patch clamp method. HEK293 cells which stably express both α1G and Kir2.1 subunits were grown in Dulbecco's modified Eagle's medium supplemented with 10% (v/v) fetal bovine serum, penicillin (100 U/mL), streptomycin (100 μg/mL), geneticin (500 μg/mL), and +puromycin (I μg/mL) at 37° C. in a humid atmosphere of 5% CO2 and 95% air. Cells were seeded into 96-well black wall clear bottom plates at a density of 4×10^4 cells/well and were used the next day for high-throughput screening (HTS) FDSS6000 assay. For FDSS6000 assay, cells were incubated for 60 min at room temperature with 5 μM fluo3/AM and 0.001% Pluronic F-127 in a HEPES-buffered solution composed of (in mM): 115 NaCl, 5.4 KCl, 0.8 MgCl2, 1.8 CaCl2, 20 HEPES, 13.8 glucose (pH 7.4). During the fluorescence-based FDSS6000 assay, cells in HEPES-buffered solution containing 10 mM CaCl2 were pretreated with a certain concentration of test compounds and then treated with high concentration of KCl ([…]). α1G T-type Ca^2+ channels were activated by using high concentration of KCl (70 mM) and the increase in [Ca^2+]i by KCl-induced depolarization was detected. During the whole procedure, cells were washed using the BIO-TEK 96-well washer. All data were collected and analyzed using FDSS6000 and related software (Hamamatsu, Japan). The IC50 results of examining the inhibitory effects of the compounds herein selected with FDSS6000 on the calcium influx through the T-type calcium channel are provided in TABLEs 1 and 2.

T1 sequence (O43497 whole entry): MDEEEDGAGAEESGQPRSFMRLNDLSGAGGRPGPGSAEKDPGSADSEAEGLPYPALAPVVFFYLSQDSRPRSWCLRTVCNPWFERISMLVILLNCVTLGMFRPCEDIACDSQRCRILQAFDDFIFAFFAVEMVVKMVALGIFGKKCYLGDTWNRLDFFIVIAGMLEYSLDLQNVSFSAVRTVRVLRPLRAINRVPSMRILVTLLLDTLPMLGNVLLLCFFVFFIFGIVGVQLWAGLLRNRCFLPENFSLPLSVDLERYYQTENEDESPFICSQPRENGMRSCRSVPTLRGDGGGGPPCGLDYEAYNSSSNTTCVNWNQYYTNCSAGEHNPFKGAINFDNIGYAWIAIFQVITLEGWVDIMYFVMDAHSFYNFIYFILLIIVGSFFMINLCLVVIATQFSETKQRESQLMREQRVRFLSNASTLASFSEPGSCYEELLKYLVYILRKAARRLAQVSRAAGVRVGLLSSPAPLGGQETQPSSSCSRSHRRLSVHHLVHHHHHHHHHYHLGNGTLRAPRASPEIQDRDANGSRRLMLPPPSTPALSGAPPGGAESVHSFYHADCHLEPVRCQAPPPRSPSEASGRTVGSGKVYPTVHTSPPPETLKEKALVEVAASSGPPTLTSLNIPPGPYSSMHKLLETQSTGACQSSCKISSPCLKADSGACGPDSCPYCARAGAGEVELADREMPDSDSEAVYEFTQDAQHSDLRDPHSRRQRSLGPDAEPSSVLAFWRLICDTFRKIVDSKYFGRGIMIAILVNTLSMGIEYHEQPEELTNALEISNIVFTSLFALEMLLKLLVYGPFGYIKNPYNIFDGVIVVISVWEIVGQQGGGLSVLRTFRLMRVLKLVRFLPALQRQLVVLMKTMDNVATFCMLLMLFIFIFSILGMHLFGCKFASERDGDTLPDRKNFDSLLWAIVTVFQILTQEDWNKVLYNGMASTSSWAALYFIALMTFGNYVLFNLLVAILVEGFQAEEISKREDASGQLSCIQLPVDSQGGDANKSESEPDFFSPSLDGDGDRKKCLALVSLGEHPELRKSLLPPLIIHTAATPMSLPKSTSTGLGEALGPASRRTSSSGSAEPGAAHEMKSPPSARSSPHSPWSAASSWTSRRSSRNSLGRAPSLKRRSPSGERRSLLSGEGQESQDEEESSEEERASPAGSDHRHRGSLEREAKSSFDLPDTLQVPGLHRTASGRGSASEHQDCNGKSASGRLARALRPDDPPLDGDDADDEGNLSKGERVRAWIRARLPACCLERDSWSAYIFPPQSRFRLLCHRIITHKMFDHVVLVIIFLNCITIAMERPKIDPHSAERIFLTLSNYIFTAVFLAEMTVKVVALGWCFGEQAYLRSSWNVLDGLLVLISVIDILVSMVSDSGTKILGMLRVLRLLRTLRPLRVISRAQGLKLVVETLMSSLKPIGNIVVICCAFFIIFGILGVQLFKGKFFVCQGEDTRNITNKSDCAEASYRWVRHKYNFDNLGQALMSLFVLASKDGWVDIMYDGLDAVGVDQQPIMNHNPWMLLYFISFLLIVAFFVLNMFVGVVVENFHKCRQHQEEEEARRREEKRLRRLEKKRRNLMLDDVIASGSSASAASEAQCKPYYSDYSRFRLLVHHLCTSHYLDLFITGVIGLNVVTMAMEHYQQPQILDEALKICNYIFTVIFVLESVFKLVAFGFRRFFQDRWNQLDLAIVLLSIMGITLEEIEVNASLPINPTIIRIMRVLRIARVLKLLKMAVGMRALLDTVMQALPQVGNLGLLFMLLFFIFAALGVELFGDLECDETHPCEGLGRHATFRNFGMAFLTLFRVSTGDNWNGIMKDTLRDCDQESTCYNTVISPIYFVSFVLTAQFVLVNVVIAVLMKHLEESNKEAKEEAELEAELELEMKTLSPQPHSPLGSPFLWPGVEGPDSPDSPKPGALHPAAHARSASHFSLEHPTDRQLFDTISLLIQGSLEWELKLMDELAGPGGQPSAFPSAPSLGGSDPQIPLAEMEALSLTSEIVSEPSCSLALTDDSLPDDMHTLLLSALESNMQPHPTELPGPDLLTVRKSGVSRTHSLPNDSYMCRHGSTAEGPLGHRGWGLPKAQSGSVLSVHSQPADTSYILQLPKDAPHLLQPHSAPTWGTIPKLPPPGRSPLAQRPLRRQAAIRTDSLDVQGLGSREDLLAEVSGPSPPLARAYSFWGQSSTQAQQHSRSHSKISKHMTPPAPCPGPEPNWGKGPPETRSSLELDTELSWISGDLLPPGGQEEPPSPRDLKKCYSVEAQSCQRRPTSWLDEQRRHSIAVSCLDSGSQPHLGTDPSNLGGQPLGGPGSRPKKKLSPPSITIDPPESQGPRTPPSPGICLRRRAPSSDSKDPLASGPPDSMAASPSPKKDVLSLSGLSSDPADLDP

Regarding `O=C(NCCCN1CCOCC1)c1ccc2c(c1)C(=O)N(Cc1ccccc1F)C2=O` [Compound 60, 4-(3-{[2-(2-fluoro-benzyl)-1,3-dioxo-2,3-dihydro-1H-isoindol-5-carbonyl]-amino}-propyl)-4-morpholinium chloride], the inhibition at 100 µM was found to be 60.8%.

Take `CC1CCCCN1CCCNC(=O)c1ccc2c(c1)C(=O)N(Cc1cccc(F)c1)C2=O` (stereo not shown) [Compound 62, 1-(3-{[2-(3-fluoro-benzyl)-1,3-dioxo-2,3-dihydro-1H-isoindol-5-carbonyl]-amino}-propyl)-2-methyl-piperidinium chloride]: the inhibition at 100 µM is 83.5%.

With `O=C(NCCN1CCCC1)c1ccc2c(c1)C(=O)N(Cc1cccc(F)c1)C2=O` [Compound 63, 1-(2-{[2-(3-fluoro-benzyl)-1,3-dioxo-2,3-dihydro-1H-isoindol-5-carbonyl]-amino}-ethyl)-pyrrolidinium chloride], the inhibition at 100 µM turned out to be 73.4%.

As to `O=C(NCCCN1CCCC1)c1ccc2c(c1)C(=O)N(Cc1cccc(F)c1)C2=O` [Compound 64, 1-(3-{[2-(3-fluoro-benzyl)-1,3-dioxo-2,3-dihydro-1H-isoindol-5-carbonyl]-amino}-propyl)-pyrrolidinium chloride], the inhibition at 100 µM stood at 65.9%.

Turning to `O=C(NCCN1CCOCC1)c1ccc2c(c1)C(=O)N(Cc1cccc(F)c1)C2=O` [Compound 65, 4-(2-{[2-(3-fluoro-benzyl)-1,3-dioxo-2,3-dihydro-1H-isoindol-5-carbonyl]-amino}-ethyl)-4-morpholinium chloride], the inhibition at 100 µM is 59.8%.

Regarding `O=C(NCCCN1CCOCC1)c1ccc2c(c1)C(=O)N(Cc1cccc(F)c1)C2=O` [Compound 66, 4-(3-{[2-(3-fluoro-benzyl)-1,3-dioxo-2,3-dihydro-1H-isoindol-5-carbonyl]-amino}-propyl)-4-morpholinium chloride], the inhibition at 100 µM amounted to 59.8%.

As to `CN1CCN(CCCNC(=O)c2ccc3c(c2)C(=O)N(Cc2cccc(F)c2)C3=O)CC1` [Compound 67, 1-(3-{[2-(3-fluoro-benzyl)-1,3-dioxo-2,3-dihydro-1H-isoindol-5-carbonyl]-amino}-propyl)-4-methyl-1-piperazinium chloride], the inhibition at 10 µM was determined as 2.2%.

With `O=C(NCCN1CCCCC1)c1ccc2c(c1)C(=O)N(Cc1ccc(F)cc1)C2=O` [Compound 68, 1-(2-{[2-(4-fluoro-benzyl)-1,3-dioxo-2,3-dihydro-1H-isoindol-5-carbonyl]-amino}-ethyl)-piperidinium chloride], the inhibition at 100 µM amounted to 78.2%.

`O=C(NCCN1CCCC1)c1ccc2c(c1)C(=O)N(Cc1ccc(F)cc1)C2=O` [Compound 70, 1-(2-{[2-(4-fluoro-benzyl)-1,3-dioxo-2,3-dihydro-1H-isoindol-5-carbonyl]-amino}-ethyl)-pyrrolidinium chloride]: the inhibition at 100 µM was determined as 67.5%.

On to `O=C(NCCN1CCOCC1)c1ccc2c(c1)C(=O)N(Cc1ccc(F)cc1)C2=O` [Compound 72, 4-(2-{[2-(4-fluoro-benzyl)-1,3-dioxo-2,3-dihydro-1H-isoindol-5-carbonyl]-amino}-ethyl)-4-morpholinium chloride], for which the inhibition at 100 µM was 46.4%.

Take `O=C(NCCCN1CCOCC1)c1ccc2c(c1)C(=O)N(Cc1ccc(F)cc1)C2=O` [Compound 73, 4-(3-{[2-(4-fluoro-benzyl)-1,3-dioxo-2,3-dihydro-1H-isoindol-5-carbonyl]-amino}-propyl)-4-morpholinium chloride]: the inhibition at 100 µM worked out at 64.8%.

With `CN1CCN(CCCNC(=O)c2ccc3c(c2)C(=O)N(Cc2ccc(F)cc2)C3=O)CC1` [Compound 74, 1-(3-{[2-(4-fluoro-benzyl)-1,3-dioxo-2,3-dihydro-1H-isoindol-5-carbonyl]-amino}-propyl)-4-methyl-1-piperazinium chloride], the inhibition at 10 µM came to 5.6%.

For the molecule `O=C(NCCN1CCCCC1)c1ccc2c(c1)C(=O)N(Cc1ccccc1Cl)C2=O` [Compound 75, 1-(2-{[2-(2-chloro-benzyl)-1,3-dioxo-2,3-dihydro-1H-isoindol-5-carbonyl]-amino}-ethyl)-piperidinium chloride], the inhibition at 10 µM amounted to 33.6%.

Take `O=C(NCCN1CCCC1)c1ccc2c(c1)C(=O)N(Cc1ccccc1Cl)C2=O` [Compound 77, 1-(2-{[2-(2-chloro-benzyl)-1,3-dioxo-2,3-dihydro-1H-isoindol-5-carbonyl]-amino}-ethyl)-pyrrolidinium chloride]: the inhibition at 10 µM is 21.5%.

In the case of `O=C(NCCCN1CCCC1)c1ccc2c(c1)C(=O)N(Cc1ccccc1Cl)C2=O` [Compound 78, 1-(3-{[2-(2-chloro-benzyl)-1,3-dioxo-2,3-dihydro-1H-isoindol-5-carbonyl]-amino}-propyl)-pyrrolidinium chloride], the inhibition at 10 µM is 25.4%.

`O=C(NCCN1CCOCC1)c1ccc2c(c1)C(=O)N(Cc1ccccc1Cl)C2=O` [Compound 79, 4-(2-{[2-(2-chloro-benzyl)-1,3-dioxo-2,3-dihydro-1H-isoindol-5-carbonyl]-amino}-ethyl)-4-morpholinium chloride]: the inhibition at 10 µM worked out at 15.6%.

On to `O=C(NCCCN1CCOCC1)c1ccc2c(c1)C(=O)N(Cc1ccccc1Cl)C2=O` [Compound 80, 4-(3-{[2-(2-chloro-benzyl)-1,3-dioxo-2,3-dihydro-1H-isoindol-5-carbonyl]-amino}-propyl)-4-morpholinium chloride], for which the inhibition at 10 µM was determined as 23.5%.

As for `O=C(NCCN1CCCCC1)c1ccc2c(c1)C(=O)N(Cc1cccc(Cl)c1)C2=O` [Compound 81, 1-(2-{[2-(3-chloro-benzyl)-1,3-dioxo-2,3-dihydro-1H-isoindol-5-carbonyl]-amino}-ethyl)-piperidinium chloride], the inhibition at 10 µM was determined as 42.9%.

In the case of `O=C(NCCN1CCCC1)c1ccc2c(c1)C(=O)N(Cc1cccc(Cl)c1)C2=O` [Compound 83, 1-(2-{[2-(3-chloro-benzyl)-1,3-dioxo-2,3-dihydro-1H-isoindol-5-carbonyl]-amino}-ethyl)-pyrrolidinium chloride], the inhibition at 10 µM came out at 28.9%.

On to `O=C(NCCCN1CCCC1)c1ccc2c(c1)C(=O)N(Cc1cccc(Cl)c1)C2=O` [Compound 84, 1-(3-{[2-(3-chloro-benzyl)-1,3-dioxo-2,3-dihydro-1H-isoindol-5-carbonyl]-amino}-propyl)-pyrrolidinium chloride], for which the inhibition at 10 µM was 30.4%.

With `O=C(NCCN1CCOCC1)c1ccc2c(c1)C(=O)N(Cc1cccc(Cl)c1)C2=O` [Compound 85, 4-(2-{[2-(3-chloro-benzyl)-1,3-dioxo-2,3-dihydro-1H-isoindol-5-carbonyl]-amino}-ethyl)-4-morpholinium chloride], the inhibition at 10 µM stood at 25.3%.

Consider `O=C(NCCCN1CCOCC1)c1ccc2c(c1)C(=O)N(Cc1cccc(Cl)c1)C2=O` [Compound 86, 4-(3-{[2-(3-chloro-benzyl)-1,3-dioxo-2,3-dihydro-1H-isoindol-5-carbonyl]-amino}-propyl)-4-morpholinium chloride], for which the inhibition at 10 µM was determined as 27.8%.

On to `O=C(NCCN1CCCC1)c1ccc2c(c1)C(=O)N(Cc1ccc(Cl)cc1)C2=O` [Compound 89, 1-(2-{[2-(4-chloro-benzyl)-1,3-dioxo-2,3-dihydro-1H-isoindol-5-carbonyl]-amino}-ethyl)-pyrrolidinium chloride], for which the inhibition at 10 µM turned out to be 29.8%.

`O=C(NCCCN1CCCC1)c1ccc2c(c1)C(=O)N(Cc1ccc(Cl)cc1)C2=O` [Compound 90, 1-(3-{[2-(4-chloro-benzyl)-1,3-dioxo-2,3-dihydro-1H-isoindol-5-carbonyl]-amino}-propyl)-pyrrolidinium chloride]: the inhibition at 10 µM turned out to be 35%.

Turning to `O=C(NCCN1CCOCC1)c1ccc2c(c1)C(=O)N(Cc1ccc(Cl)cc1)C2=O` [Compound 91, 4-(2-{[2-(4-chloro-benzyl)-1,3-dioxo-2,3-dihydro-1H-isoindol-5-carbonyl]-amino}-ethyl)-4-morpholinium chloride], the inhibition at 10 µM worked out at 26.1%.

On to `O=C(NCCCN1CCOCC1)c1ccc2c(c1)C(=O)N(Cc1ccc(Cl)cc1)C2=O` [Compound 92, 4-(3-{[2-(4-chloro-benzyl)-1,3-dioxo-2,3-dihydro-1H-isoindol-5-carbonyl]-amino}-propyl)-4-morpholinium chloride], for which the inhibition at 10 µM was 29.9%.

For the molecule `Cc1ccccc1CN1C(=O)c2ccc(C(=O)NCCN3CCCC3)cc2C1=O` [Compound 95, 1-(2-{[2-(2-methyl-benzyl)-1,3-dioxo-2,3-dihydro-1H-isoindol-5-carbonyl]-amino}-ethyl)-pyrrolidinium chloride], the inhibition at 10 µM came out at 15.7%.

For `Cc1ccccc1CN1C(=O)c2ccc(C(=O)NCCCN3CCCC3)cc2C1=O` [Compound 96, 1-(3-{[2-(2-methyl-benzyl)-1,3-dioxo-2,3-dihydro-1H-isoindol-5-carbonyl]-amino}-propyl)-pyrrolidinium chloride], the inhibition at 10 µM was determined as 15.5%.

As usually defined, the inhibition is the share of the control response that was lost under treatment.
